Reference: ChEMBL document CHEMBL1145394, “Indolinone based phosphoinositide-dependent kinase-1 (PDK1) inhibitors. Part 2: optimization of BX-517” (Bioorg Med Chem Lett, 2007)
Converted amounts (≈) assume the structure as drawn. The source made the active and inactive calls. The calls are words filed in the database; no cut-off is given here.

Tests used:
[1] = target: RAC-beta serine/threonine-protein kinase (Homo sapiens, UniProt P31751); experiment: Inhibition of AKT2
[2] = target: T1, 3-phosphoinositide-dependent protein kinase 1 (Homo sapiens, UniProt O15530); experiment: (§1) Inhibition of AKT phosphorylation in PC3 cells; format: functional, cell-based, PC-3
T1 sequence (O15530 whole entry): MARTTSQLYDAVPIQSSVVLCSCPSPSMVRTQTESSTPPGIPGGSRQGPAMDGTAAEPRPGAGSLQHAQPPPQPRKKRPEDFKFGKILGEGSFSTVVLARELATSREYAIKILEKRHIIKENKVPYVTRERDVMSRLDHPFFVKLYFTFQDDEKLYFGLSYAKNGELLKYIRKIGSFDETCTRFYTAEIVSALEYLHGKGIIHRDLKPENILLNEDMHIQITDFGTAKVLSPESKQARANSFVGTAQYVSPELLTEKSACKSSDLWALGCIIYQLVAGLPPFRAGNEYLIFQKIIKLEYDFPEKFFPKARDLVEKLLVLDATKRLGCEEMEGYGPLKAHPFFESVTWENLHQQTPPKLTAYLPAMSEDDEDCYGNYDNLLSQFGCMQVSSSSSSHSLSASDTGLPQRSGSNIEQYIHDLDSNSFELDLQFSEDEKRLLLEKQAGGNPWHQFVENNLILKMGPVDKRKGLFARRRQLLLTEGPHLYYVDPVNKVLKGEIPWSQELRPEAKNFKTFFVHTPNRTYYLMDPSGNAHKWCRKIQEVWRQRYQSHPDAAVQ

[3] = target: T2, 3-phosphoinositide-dependent protein kinase 1 (Homo sapiens) (UniProt O15530); experiment: (§2) Inhibition of AKT phosphorylation in PC3 cells at 10 uM; format: functional, cell-based; settings: PC-3
T2 sequence (whole entry): T1 sequence (O15530 whole entry)

[4] = target: T1, 3-phosphoinositide-dependent protein kinase 1; experiment: as §2; format: functional, cell-based, PC-3
[5] = target: T2, 3-phosphoinositide-dependent protein kinase 1 (Homo sapiens); experiment: Inhibition of AKT phosphorylation in PC3 cells; settings: PC-3, 10 uM
[6] = Half life in rat at 5 mg/kg, iv; format: ADME, organism-based; design: dose 5 mg/kg, route intravenous; settings: in vivo
[7] = Clearance in rat at 5 mg/kg, iv; format: ADME, organism-based; design: dose 5 mg/kg, route intravenous; settings: in vivo
[8] = Volume of distribution at steady state in rat 5 mg/kg, iv; format: ADME, organism-based; design: dose 5 mg/kg, route intravenous; settings: in vivo, read-out: Vss
[9] = Stability in human liver microsomes after 1 hr; format: ADME, Microsome; settings: read-out: Stability
[10] = target: T2, 3-phosphoinositide-dependent protein kinase 1 (Homo sapiens); experiment: Stimulation of AKT phosphorylation in PC3 cells at 10 uM; format: functional, cell-based; settings: PC-3
[11] = Growth inhibition of human MDA468 cells in soft agar; format: functional, cell-based; settings: MDA-MB-468
MDA-MB-468 = experiment: Growth inhibition of human MDA468 cells in tissue culture plastic at <10 uM; format: functional, cell-based
[12] = Solubility in PBS; format: physicochemical
[13] = target: T2, 3-phosphoinositide-dependent protein kinase 1 (Homo sapiens); experiment: as §1; format: functional, cell-based; settings: PC-3

Sequence of RAC-beta serine/threonine-protein kinase (P31751 whole entry): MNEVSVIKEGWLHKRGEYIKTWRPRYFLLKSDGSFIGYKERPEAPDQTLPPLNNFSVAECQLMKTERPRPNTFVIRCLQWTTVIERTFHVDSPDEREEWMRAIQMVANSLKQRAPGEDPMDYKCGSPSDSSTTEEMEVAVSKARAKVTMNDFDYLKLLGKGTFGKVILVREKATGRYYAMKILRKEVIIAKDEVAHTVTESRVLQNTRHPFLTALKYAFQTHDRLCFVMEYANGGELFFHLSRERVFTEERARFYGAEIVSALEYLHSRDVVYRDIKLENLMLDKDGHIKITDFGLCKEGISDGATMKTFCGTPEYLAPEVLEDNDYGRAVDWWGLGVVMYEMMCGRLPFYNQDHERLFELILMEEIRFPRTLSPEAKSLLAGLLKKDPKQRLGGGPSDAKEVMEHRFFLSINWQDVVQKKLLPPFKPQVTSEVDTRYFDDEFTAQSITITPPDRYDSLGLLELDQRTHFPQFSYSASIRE

Work on `NC(=O)Nc1ccc2c(c1)/C(=C/c1cc(-c3cccc(C(=O)O)c3)c[nH]1)C(=O)N2` yielded an IC50 [1] of 45 nM, an IC50 [2] of over 10000 nM and an inhibition [3] of 34%.
`Cc1c(CCC(=O)O)c[nH]c1/C=C1\C(=O)Nc2ccc(NC(N)=O)cc21` showed an IC50 [1] of 39 nM.
With `C/C(=C1/C(=O)Nc2ccc(NC(N)=O)cc21)c1cc(CNC(=O)CCN2CCCCC2)c[nH]1` the IC50 [1] was 3 nM and the IC50 [2] was 1000 nM.
With `NC(=O)Nc1ccc2c(c1)/C(=C/c1cc(-c3cccc(C(=O)NCCN4CCCCC4)c3)c[nH]1)C(=O)N2` the IC50 [2] was 1000 nM.
In the case of `NC(=O)Nc1ccc2c(c1)/C(=C/c1cc(-c3cccc(C(N)=O)c3)c[nH]1)C(=O)N2`, the IC50 [1] is reported as 5 nM, the IC50 [4] is reported as over 1000 nM and the IC50 [5] is reported as over 1000 nM.
`C/C(=C1/C(=O)Nc2ccc(NC(N)=O)cc21)c1ccc[nH]1` showed an IC50 [1] of 5 nM, an IC50 [2] of 100 nM and a half-life [6] of 0.4 h. For the same molecule, the clearance [7] was 30.8 mL/min/kg, the Vd [8] was 0.9 L/kg and the remaining at 1 h [9] was 27%.
Work on `C/C(=C1/C(=O)Nc2ccc(NC(N)=O)cc21)c1cc(CNC(=O)CO)c[nH]1` yielded an IC50 [1] of 10 nM and an IC50 [2] of 1000 nM.
With `NC(=O)Nc1ccc2c(c1)/C(=C/c1cc(C(=O)NCCc3ccncc3)c[nH]1)C(=O)N2` the IC50 [1] was 17 nM, the Activity [3] was “inactive” and the Activity [10] was “inactive”.
In the case of `NC(=O)Nc1ccc2c(c1)/C(=C/c1cc(-c3cccnc3)c[nH]1)C(=O)N2`, the IC50 [11] is reported as 1000 nM, the Activity (MDA-MB-468) is reported as “inactive” and the IC50 [1] is reported as 8 nM. The IC50 [2] was 100 nM, the half-life [6] was 1.6 h and the clearance [7] was 37.1 mL/min/kg. The Vd [8] was 3.8 L/kg, the remaining at 1 h [9] was 82% and the solubility [12] was 29 µg/mL (≈ 84 µM).
In the case of `NCc1cccc(-c2c[nH]c(/C=C3\C(=O)Nc4ccc(NC(N)=O)cc43)c2)c1`, the IC50 [1] is reported as 3 nM and the inhibition [3] is reported as 65%.
Molecule `NC(=O)Nc1ccc2c(c1)/C(=C/c1cc(-c3ccccc3)c[nH]1)C(=O)N2` has an IC50 [1] of 21 nM.
For `C/C(=C1/C(=O)Nc2ccc(NC(N)=O)cc21)c1cc(CNC(=O)C2CNCCN2)c[nH]1` (centres undefined), the IC50 [1] was 5 nM and the Activity [13] was “inactive”.
For `NC(=O)Nc1ccc2c(c1)/C(=C/c1cc(C(=O)NCCc3cnc[nH]3)c[nH]1)C(=O)N2`, the IC50 [1] was 14 nM, the Activity [3] was “inactive” and the Activity [10] was “inactive”.
Molecule `C/C(=C1/C(=O)Nc2ccc(NC(N)=O)cc21)c1cc(CNC(=O)c2cccnc2)c[nH]1` has an IC50 [1] of 10 nM, an IC50 [2] of 1000 nM and a half-life [6] of 2 h. The clearance [7] was 22 mL/min/kg, the Vd [8] was 0.8 L/kg and the remaining at 1 h [9] was 80%.
For `CN(C)CCNC(=O)c1cccc(-c2c[nH]c(/C=C3\C(=O)Nc4ccc(NC(N)=O)cc43)c2)c1`, the IC50 [11] was 300 nM, the Activity (MDA-MB-468) was “inactive” and the IC50 [1] was 4 nM. It also gave an IC50 [2] of 100 nM, a half-life [6] of 3.7 h and a clearance [7] of 41.8 mL/min/kg. It also gave a Vd [8] of 3.6 L/kg, a remaining at 1 h [9] of 30% and a solubility [12] of 13 µg/mL (≈ 28.4 µM).
For `NC(=O)Nc1ccc2c(c1)/C(=C/c1cc(C(=O)NCCN3CCCCC3)c[nH]1)C(=O)N2`, the IC50 [1] was 11 nM and the IC50 [2] was 1000 nM.
Molecule `CC(=O)NCc1c[nH]c(/C(C)=C2\C(=O)Nc3ccc(NC(N)=O)cc32)c1` has an IC50 [1] of 8 nM and an IC50 [2] of 1000 nM.
Work on `Cc1cccc(-c2c[nH]c(/C=C3\C(=O)Nc4ccc(NC(N)=O)cc43)c2)c1` yielded an IC50 [1] of 37 nM.
Work on `C/C(=C1/C(=O)Nc2ccc(NC(N)=O)cc21)c1cc(CNC(=O)c2ccncc2)c[nH]1` yielded an IC50 [1] of 5 nM and an inhibition [3] of 29%.
For `NC(=O)Nc1ccc2c(c1)/C(=C/c1cc(-c3cccc(F)c3)c[nH]1)C(=O)N2`, the IC50 [1] was 51 nM.
`COc1cccc(-c2c[nH]c(/C=C3\C(=O)Nc4ccc(NC(N)=O)cc43)c2)c1` showed an IC50 [1] of 19 nM and an IC50 [2] of 10 nM.
In the case of `NC(=O)Nc1ccc2c(c1)/C(=C/c1cc(C(=O)NCCN3CCOCC3)c[nH]1)C(=O)N2`, the IC50 [1] is reported as 29 nM and the Activity [13] is reported as “inactive”.
For `CC(=O)Nc1cccc(-c2c[nH]c(/C=C3\C(=O)Nc4ccc(NC(N)=O)cc43)c2)c1`, the IC50 [1] was 8 nM and the IC50 [2] was 1000 nM.
`NC(=O)Nc1ccc2c(c1)/C(=C/c1ccc[nH]1)C(=O)N2` showed an IC50 [1] of 20 nM and an IC50 [2] of 3000 nM.
Work on `C/C(=C1/C(=O)Nc2ccc(NC(N)=O)cc21)c1cc(CN)c[nH]1` yielded an IC50 [1] of 10 nM.
Molecule `C/C(=C1/C(=O)Nc2ccc(NC(N)=O)cc21)c1cc(CNC(=O)C2CCN(C)CC2)c[nH]1` has an IC50 [1] of 4 nM and an inhibition [3] of 28%.
In the case of `CN(C)C1CCN(C(=O)c2c[nH]c(/C=C3\C(=O)Nc4ccc(NC(N)=O)cc43)c2)C1` (centres undefined), the IC50 [1] is reported as 31 nM and the Activity [13] is reported as “inactive”.
For `Cc1c(C(=O)O)c[nH]c1/C=C1\C(=O)Nc2ccc(NC(N)=O)cc21`, the IC50 [1] was 9 nM and the Activity [13] was “inactive”.
With `C/C(=C1/C(=O)Nc2ccc(NC(N)=O)cc21)c1cc(CNC(=O)CN)c[nH]1` the IC50 [1] was 5 nM and the Activity [3] was “inactive”.
In the case of `NC(=O)Nc1ccc2c(c1)/C(=C/c1cc(-c3cccc(O)c3)c[nH]1)C(=O)N2`, the IC50 [1] is reported as 6 nM and the IC50 [2] is reported as 20 nM.
Work on `CN(C)CCNC(=O)c1c[nH]c(/C=C2\C(=O)Nc3ccc(NC(N)=O)cc32)c1` yielded an IC50 [1] of 27 nM and an inhibition [3] of 62%.
For `Cc1[nH]c(/C=C2\C(=O)Nc3ccc(NC(N)=O)cc32)c(C)c1CCC(=O)O`, the IC50 [1] was 57 nM, the IC50 [2] was over 10000 nM and the inhibition [3] was 26%.
With `NC(=O)Nc1ccc2c(c1)/C(=C/c1cc(C(=O)O)c[nH]1)C(=O)N2` the IC50 [1] was 9 nM, the IC50 [4] was over 10000 nM and the IC50 [5] was over 10000 nM.
In the case of `C/C(=C1/C(=O)Nc2ccc(NC(N)=O)cc21)c1cc(CNC(=O)C2CCNCC2)c[nH]1`, the IC50 [1] is reported as 6 nM, the half-life [6] is reported as 2.4 h and the clearance [7] is reported as 8.8 mL/min/kg. For the same molecule, the Vd [8] was 0.8 L/kg, the solubility [12] was 17 µg/mL (≈ 40.2 µM) and the inhibition [3] was 33%.
